{
  "source": "patent US20170189429A1",
  "about": "“Treating Arrhythmia with Mitochondrial-Targeted Antioxidants” (Rhode Island Hospital, priority 2014, published 2017)",
  "key": {"[1]": {"tested_on": "sodium channel current (INa)", "experiment": "Patch clamp peak INa in adult mouse cardiomyocytes treated with antimycin A", "assay_type": "cell-based", "protocol": "FIG. 9A is a bar graph showing that MitoQ restored INa that was decreased by antimycin A. The peak INa at −30 mV in adult mouse cardiomyocytes was decreased in antimycin A (5-10 μM) compared with SCNSA alone. Treatment using MitoQ at 10 nM with a 1-2 hour preincubation time restored INa. The SCNSA group is the untreated group. For patch clamp, MitoQ and antimycin A were also applied to the patch clamp bath solution during the entire time of patching, respectively or together. INa was measured at room temperature. Data shown in FIGS. 9A and 9B were obtained from 3 different mice, and 16-28 cells were used on average in each group.\nIn addition to MitoTEMP and NAD^+, another mitochondrial-targeted antioxidant, MitoQ, was tested. […] is an antibiotic that induces apoptosis and inhibits the mitochondrial electron transport chain, thereby inducing oxidative stress and generating reactive oxygen species. Because antimycin A is known to generate ROS (for example, increasing superoxide formation), it decreases the sodium channel current (INa). Additionally, antiomycin A causes damage to mitochondrial DNA, lipids, and proteins in cells treated with the antibiotic. […] Mitochondrial ROS production in response to increased antimycin A levels was monitored by MitoSox Red with SCNSA cells and myocytes (FIGS. 9A and 9B). […]"}, "ROS": {"tested_on": "ROS", "experiment": "ROS density by MitoSox dye in adult mouse cardiomyocytes treated with antimycin A", "assay_type": "cell-based", "conditions": "MitoQ 1-2 hours pretreatment, 10 nM", "protocol": "FIG. 9B is a bar graph showing that Mito Q decreased ROS that was generated by antimycin A. ROS density in adult mouse cardiomyocytes was measured using MitoSox dye. Adult mouse cardiomyocytes were isolated, and MitoQ was applied for 1-2 hours pretreatment.\nIn addition to MitoTEMP and NAD^+, another mitochondrial-targeted antioxidant, MitoQ, was tested. […] is an antibiotic that induces apoptosis and inhibits the mitochondrial electron transport chain, thereby inducing oxidative stress and generating reactive oxygen species. Because antimycin A is known to generate ROS (for example, increasing superoxide formation), it decreases the sodium channel current (INa). Additionally, antiomycin A causes damage to mitochondrial DNA, lipids, and proteins in cells treated with the antibiotic. MitoSOX Red is a fluorescent mitochondrial probe used to measure ROS production. Mitochondrial ROS production in response to increased antimycin A levels was monitored by MitoSox Red with SCNSA cells and myocytes (FIGS. 9A and 9B).\nIsolated adult mouse cardiomyocytes were pretreated with MitoQ."}, "[2]": {"tested_on": "cardiac Na+ channel (Nav1.5)", "experiment": "Whole-cell patch clamp recording of Na+ currents (INa) in cardiomyocytes isolated from MI mice treated with antioxidant", "assay_type": "in vivo, mouse", "protocol": "(§1) The following materials and methods were used to generate the data described herein. MI was induced in 12-week old C57BL/6 mice by coronary artery occlusion. Sham-operated mice were used as controls. Two weeks following surgery, MI mice were either given a mitochondria-targeted antioxidant, mitoTEMPO (0.7 mg/kg/day, intraperitoneally), or left untreated for two weeks. Cardiomyocytes isolated from the scar border of MI mice or from the left ventricular (LV) anterior wall of sham-operated mice were utilized for whole-cell patch clamp recording of Na^+currents (INa) and for measurements of mitochondrial reactive oxygen species (mitoROS) using flow cytometry. Nav1.5 protein expression levels were determined in the LV from MI and sham-operated mice. Echocardiography was performed 2- and 4-weeks following MI. Oxidized nicotinamide adenine dinculeotide used for experiments was purchased from Sigma-Aldrich, catalog number N1636 “β-Nicotinamide adenine dinucleotide hydrate, ≧99%, Synonyms: NAD^+, β-DPN, β-NAD, Coenzyme 1, Cozymase, DPN, Diphosphopyridine nucleotide, NAD, Nadide” and dissolved in water. MitoQ was used at 10 nM.\nMI was induced in 12-week old C57BL/6 mice by coronary artery occlusion. Sham-operated mice were used as controls. […]\nWhole cell INa were measured using the whole-cell patch clamp technique in voltage-clamp mode at room temperature."}, "[3]": {"tested_on": "mitochondrial reactive oxygen species (mitoROS)", "experiment": "mitoROS by flow cytometry (MitoSOX Red) in cardiomyocytes of treated MI mice", "assay_type": "in vivo, mouse", "protocol": "The following materials and methods were used to generate the data described herein. MI was induced in 12-week old C57BL/6 mice by coronary artery occlusion. Sham-operated mice were used as controls. Two weeks following surgery, MI mice were either given a mitochondria-targeted antioxidant, mitoTEMPO (0.7 mg/kg/day, intraperitoneally), or left untreated for two weeks. Cardiomyocytes isolated from the scar border of MI mice or from the left ventricular (LV) anterior wall of sham-operated mice were utilized for whole-cell patch clamp recording of Na^+currents (INa) and for measurements of mitochondrial reactive oxygen species (mitoROS) using flow cytometry. Nav1.5 protein expression levels were determined in the LV from MI and sham-operated mice. Echocardiography was performed 2- and 4-weeks following MI. […]\nA BD LSR II (BD Biosciences) flow cytometer was used for high-throughput evaluation of mitoROS, mitochondrial volume, and cell survival. […] Separate suspensions were stained with propidium iodide (10 μg/mL) and evaluated at 617 nm to measure for cell integrity. Five thousand gated cells were recorded in each sample. […]"}, "Connexin 43": {"tested_on": "Connexin 43", "experiment": "Connexin 43 protein level expression in heart tissue of MI mice", "assay_type": "in vivo, mouse", "description": "FIG. 5A is a blot showing Connexin 43 protein level expressions and Glyceraldehyde 3-phosphate dehydrogenase (GAPDH) protein level expressions in heart tissue of Sham, MI mice and MI mice treated with mitoTEMPO (MI tx MT).\nFIG. 5B is a bar graph showing Connexin 43/GAPDH protein expression in Sham, MI mice and MI mice treated with mitoTEMPO (MI tx MT).\nMI was induced in 12-week old C57BL/6 mice by coronary artery occlusion. Sham-operated mice were used as controls. Two weeks after surgery, MI mice were either given a mitochondria-targeted antioxidant, mitoTEMPO (0.7 mg/kg/day, intraperitoneally), or left untreated for two weeks (Rutledge C A et al. J Am Coll Cardiol 2014; 63:928-934)."}, "[4]": {"experiment": "Echocardiography 2 and 4 weeks following MI", "assay_type": "in vivo, mouse", "conditions": "MI mice", "protocol": "as §1"}, "[5]": {"tested_on": "SCN5A: sodium channel, voltage gated type V alpha subunit", "experiment": "INa in SCN5A cells treated with NADH", "assay_type": "cell-based", "protocol": "FIG. 1A is a graph showing a series of sodium current traces measuring a INa reduction induced by NADH (nicotinamide adenine dinucleotide) (SCN5A+100 μM [NADH]) compared to normal INa (SCN5A), which can be restored by mitoTEMPO (SCN5A+100 μM [NADH]+5 μM [mitoTEMPO]). SCN5A: sodium channel, voltage gated type V alpha subunit\nFIG. 1B is a bar graph showing INa reduction induced by NADH (SCN5A+100 μM [NADH]) compared to normal INa (SCN5A), which can be restored by mitoTEMPO (SCN5A+100 μM [NADH]+5 μM [mitoTEMPO]), which is also compared to mitoTEMPO (5 μM [mitoTEMPO]).\nThe SCNSA group is the untreated cells group, and the others were treated with 100 μmol/L NADH in the absence or presence of NAD from 50 to 1000 μmol/L.\nThe SCN5A group is the untreated cells group, and the others were treated with 100 μmol/L NADH in the absence or presence of NAD from 50 to 1000 μmol/L."}, "mitochondrial ROS [6]": {"tested_on": "mitochondrial ROS", "experiment": "Mitochondrial ROS by MitoSox Red confocal microscopy in PL-treated cells and DOCA myocytes", "assay_type": "cell-based, mouse", "protocol": "FIG. 6A is a photo showing representative confocal microscopy images of myocytes of 3 groups. Scale bar, 10 μm. Mitochondrial ROS production in response to intracellular NADH was monitored by MitoSox Red with SCNSA cells and myocytes. The control groups were untreated, the pyruvate and lactate (PL) groups were treated with 1 and 10 mmol/L PL buffer, respectively, for 10 minutes, and the NAD-PL groups were incubated with 500 μmol/L NAD^+ for ˜6 hours and then treated with PL buffer for 10 minutes.\nFIG. 6C is a photo showing that mitochondrial ROS levels were increased in DOCA (deoxycorticosterone) myopathic mice and reduced by NAD treatment (500 μmol/L). Representative confocal microscopy images of mitochondrial ROS levels were obtained with treatment of myocytes monitored with MitoTracker Green and MitoSox Red. The white scale bar is 20 μm. […]\nMitochondrial ROS production in response to intracellular NADH was monitored by MitoSox Red with SCNSA cells and myocytes (FIGS. 6A and 6B). […]\nMitochondrial ROS levels were increased in DOCA myopathic mice and reduced by NAD^+ treatment (500 μmol/L) (FIG. 6C. Representative confocal microscopy images of mitochondrial ROS levels were obtained with treatment of myocytes monitored with MitoTracker Green and MitoSox Red. The white scale bar is 20 μm. The extremely red cells are dying myocytes that have very high levels of ROS."}, "cardiac INa": {"tested_on": "cardiac INa", "experiment": "Peak INa of DOCA mouse cardiomyocytes treated with NAD+", "assay_type": "cell-based", "conditions": "500 μmol/L", "description": "NAD^+ restored INa decreased by mitoROS in PL-treated cells and in DOCA myocytes."}, "mitochondrial ROS [7]": {"tested_on": "mitochondrial ROS", "experiment": "Mitochondrial ROS by flow cytometry in DOCA mice injected with NAD+", "assay_type": "in vivo, mouse", "conditions": "100 mg/kg injected in the neck, P>0.05", "protocol": "Three to four animals and ˜10,000 myocytes from each animal were tested in each group in flow cytometry (FIG. 8A)."}, "INa": {"tested_on": "INa", "experiment": "INa in cardiomyopathy of DOCA mice injected with NAD", "assay_type": "in vivo, mouse", "conditions": "injection 100 mg/kg", "protocol": "Reduced INa in cardiomyopathy of DOCA was corrected by injection of NAD (100 mg/kg), which had no effect on the sham group (FIG. 8B)."}, "[8]": {"conditions": "rodents treated 0.7 mg/kg/day intraperitoneally after ischemic insult"}},
  "data": [
    {"compound": "COC1=C(OC)C(=O)C(CCCCCCCCCC[P+](c2ccccc2)(c2ccccc2)c2ccccc2)=C(C)C1=O", "note": "[MitoQ, 10-(6′-Ubiquinolyl)decylthriphenylphosphonium bromide]", "values": [
      {"measurement": "INa decreased by antimycin A, effect of antioxidant", "setting": "[1]; 10 nM, 1-2 hour preincubation, antimycin A 5-10 μM, peak INa at −30 mV, room temperature", "value": "restored INa"},
      {"measurement": "ROS (MitoSOX density) generated by antimycin A", "setting": "ROS", "value": "elevated MitoSOX density"},
      {"measurement": "ROS (MitoSOX density) generated by antimycin A", "setting": "ROS; listed as Mito Q", "value": "decreased ROS"}
    ]},
    {"compound": "CC1(C)CC(NC(=O)C[P+](c2ccccc2)(c2ccccc2)c2ccccc2)CC(C)(C)N1[O]", "note": "[mitoTEMPO, (2-(2,2,6,6-Tetramethylpiperidin-1-oxyl-4-ylamino)-2-oxoethyl)triphenylphosphonium chloride monohydrate]", "values": [
      {"measurement": "peak INa density", "setting": "[2]; MI mice, 0.7 mg/kg/day intraperitoneally for two weeks, isolated LV cardiomyocytes, sham −24.0±1.8, untreated MI −14.3±1.4", "value": "−19.4±0.8", "unit": "pA/pF"},
      {"measurement": "INa activity, effect in words", "setting": "[2]; [8]", "value": "statistically significant increase"},
      {"measurement": "mitoROS level", "setting": "[3]; MI mice, 0.7 mg/kg/day intraperitoneally for two weeks, scar border cardiomyocytes, untreated MI 1.5±0.2 fold", "value": "1.2±0.2", "unit": "fold"},
      {"measurement": "mitochondrial ROS, effect in words", "setting": "[3]; [8]", "value": "statistically significant decrease"},
      {"measurement": "effect on connexin 43 downregulation in MI", "setting": "Connexin 43; MI mice", "value": "no effect"},
      {"measurement": "Connexin 43 level, of sham levels", "setting": "Connexin 43; treated MI mice, untreated MI 56%, P<0.01 vs sham, ns vs MI", "value": 41, "unit": "%"},
      {"measurement": "echocardiography parameters, untreated vs treated groups", "setting": "[4]", "value": "no significant differences"},
      {"measurement": "INa reduced by NADH, effect of antioxidant", "setting": "[5]; SCN5A + 100 μM NADH + 5 μM mitoTEMPO", "value": "restored"}
    ]},
    {"compound": "antimycin A", "values": [
      {"measurement": "peak INa at −30 mV, effect of antimycin A", "setting": "[1]; 5-10 μM, compared with SCN5A alone (untreated)", "value": "decreased"}
    ]},
    {"compound": "NC(=O)c1ccc[n+]([C@@H]2O[C@H](COP(=O)([O-])OP(=O)(O)OC[C@H]3O[C@@H](n4cnc5c(N)ncnc54)[C@H](O)[C@@H]3O)[C@@H](O)[C@H]2O)c1", "note": "[NAD^+, β-Nicotinamide adenine dinucleotide hydrate]", "values": [
      {"measurement": "inhibition of NADH on cardiac INa, effect of extracellular NAD", "setting": "[5]; 100 μmol/L NADH, NAD from 50 to 1000 μmol/L", "value": "reversed the inhibition of NADH on cardiac INa in a dose-dependent manner"},
      {"measurement": "mitochondrial ROS levels in DOCA myopathic mice myocytes", "setting": "mitochondrial ROS [6]; 500 μmol/L", "value": "reduced"},
      {"measurement": "MitoROS level increased by PL", "setting": "mitochondrial ROS [6]; 500 μmol/L NAD+ for ~6 hours, then PL buffer 10 minutes", "value": "Decreased"},
      {"measurement": "peak INa of DOCA mouse cardiomyocytes", "setting": "cardiac INa", "value": "restored INa to the sham level"},
      {"measurement": "mitochondrial ROS", "setting": "mitochondrial ROS [7]", "value": "1.1±0.1 fold of sham"},
      {"measurement": "reduced INa in cardiomyopathy of DOCA", "setting": "INa; DOCA mice", "value": "corrected"},
      {"measurement": "INa, effect on the sham group", "setting": "INa; sham mice", "value": "no effect"}
    ]}
  ]
}
